Assay results taken from US5633255A, “1,2-dihydro-2-oxo-3-aminoquinoxaline derivatives, their preparation and their therapeutic application” (Pierre Fabre Medicament, priority 1992, dated 1997).
Values after ≈ are worked out from the molar mass of the structure shown. Where a name gives a salt, the structure may show the parent alone.

What was measured:
[1] = tested on: trachea (contraction induced by potassium chloride); experiment: antagonism of the effect of potassium chloride (contractions of isolated guinea pig trachea); format: cell-based; settings: Cavia porcellus, 5 min, potassium chloride 1850 μg/ml, 5 min contact, 37° C.
Method: (§1) To this end, the compounds were studied for their antagonistic effect on the contractions induced by various products according to the following procedure. A piece of trachea from a male three-colored guinea pig weighing 400 g on average is cut into rings and mounted (2.5 cm approximately) in an insulated organ tank which is thermostatted at 37° C. and filled with oxygenated Tyrode's solution. The isometric contractions induced by the various mediators are recorded using a Gould Statham UC2 sensor (Gould Inc. Oxnard, Calif., U.S.A.) or a Palmer Bioscience UF1 sensor connected to a potentiometric recorder ([…], Selb, FRG). At the start of the experiment, the fragment of trachea is subjected to a tension of 1 g and left to stand for 1 hour. The following mediator concentrations are used (concentrations generally inducing a maximum contraction): histamine dihydrochloride, 10 μg/ml; potassium chloride, 1850 μg/ml. The concentrations of agents used result in contractions which become maximal after 5 to 15 min. depending on the mediators and remain at a steady level thereafter. A concentration of the product studied is administered for each contraction and the product is left in contact with the trachea for 5 min. The possible inhibition obtained after this time is measured (percentage of variation in the amplitude of the contraction). The trachea is next washed for 15 seconds and left to stand for 10 min. approximately (time necessary to return to the base tonus) before inducing a new contraction. The water-insoluble products are diluted in 0.178% (v.v) (final bath concentration) dimethyl sulfoxide (DMSO). […] The 50% inhibitory concentrations (IC50) are calculated using an SAS (Statistical Analysis System) program based on the model of Bliss and […] (Bliss C. I. and […]. Biological Assay Ann. Rev. Physiol. 5, 479, 1943).

[2] = tested on: trachea (contraction induced by histamine); experiment: antagonism of the effect of histamine (contractions of isolated guinea pig trachea); format: cell-based; settings: Cavia porcellus, 5 min, histamine dihydrochloride 10 μg/ml, 5 min contact, 37° C.
Method: as §1

[3] = tested on: Zymosan Pleurisy; experiment: pleurisy model with Zymosan in rats; format: in vivo, rat (male Sprague Dawley); settings: po; rat, 100 mg/kg p.o. one hour before Zymosan (10 mg intrapleural), exudate measured 1 hour later; read-out: Zymosan Pleurisy volume pleural exudate
Method: The compounds of the invention were also tested on the pleurisy model with Zymosan in rats ([…] et al. Pharmacol. Res., 21, 385, 1989) according to the following procedure: 10 mg of Zymosan in a volume of 0.15 ml of sterile 0.9% NaCl are injected into the pleural cavity of male Sprague Dawley rats mildly anesthetized with ether. The animals are sacrificed 1 hour later and the pleural exudate is withdrawn and measured. The animals are kept unfed from the evening before. The products are administered p.o. one hour before injection of the inflammation-inducing agent, at a dose of 100 mg/kg.

IC50 [1] | IC50 [2] | SMILES | change in vivo at 100 mg/kg [3]
19.3 µg/mL | 4.6 µg/mL | CCCn1c(=O)c(N)nc2ccccc21.Cl [Compound 5, 1-n-propyl-1,2-dihydro-2-oxo-3-aminoquinoxaline hydrochloride] | -21%
9.6 µg/mL (≈ 44.2 µM) | 1.7 µg/mL (≈ 7.82 µM) | CCCCn1c(=O)c(N)nc2ccccc21 [Compound 8] | 4%
21 µg/mL (≈ 104 µM) | 5.9 µg/mL (≈ 29.3 µM) | C=CCn1c(=O)c(N)nc2ccccc21 [Compound 11] | -33%
9.1 µg/mL (≈ 42.3 µM) | 1.1 µg/mL (≈ 5.11 µM) | C=CCn1c(=O)c(NC)nc2ccccc21 [Compound 12] | -31%
19.3 µg/mL (≈ 84.2 µM) | 8.6 µg/mL (≈ 37.5 µM) | C=CCn1c(=O)c(N(C)C)nc2ccccc21 [Compound 13] | -43%
7.4 µg/mL | 2.6 µg/mL | CC(C)=CCn1c(=O)c(N)nc2ccccc21 [Compound 14, hydrochloride] | -14%

Continued, compound first:

SMILES | IC50 [1] | IC50 [2] | change in vivo at 100 mg/kg [3]
CCCn1c(=O)c(NC)nc2ccccc21.Cl [Compound 6, 1-n-propyl-1,2-dihydro-2-oxo-3-methylaminoquinoxaline hydrochloride] | 4.7 µg/mL | 6.4 µg/mL | -27%
CCCn1c(=O)c(N(C)C)nc2ccccc21.Cl [Compound 7, 1-n-propyl-1,2-dihydro-2-oxo-3-dimethylaminoquinoxaline hydrochloride] | 28 µg/mL | 10.7 µg/mL | -44%
CCCCn1c(=O)c(NC)nc2ccccc21 [Compound 9] | 11.1 µg/mL (≈ 48 µM) | 0.55 µg/mL (≈ 2.38 µM) | -29%
CCCCn1c(=O)c(N(C)C)nc2ccccc21 [Compound 10] | 45 µg/mL (≈ 183 µM) | 5.7 µg/mL (≈ 23.2 µM) | -47%
CNc1nc2ccccc2n(CC=C(C)C)c1=O [Compound 15] | – | 0.65 µg/mL (≈ 2.67 µM) | -5%
CC(C)=CCn1c(=O)c(N(C)C)nc2ccccc21 [Compound 16] | – | 13.5 µg/mL (≈ 52.5 µM) | –
CC(C)(O)CCn1c(=O)c(N)nc2ccccc21 [Compound 17, 1-(3-methyl-3-hydroxy)butyl-1,2-dihydro-2-oxo-3-aminoquinoxaline hydrochloride] | 45 µg/mL | 23 µg/mL | –
Cn1c(=O)c2[nH]cnc2n(C)c1=O [Theophylline, reference compound] | 30 µg/mL (≈ 167 µM) | 30 µg/mL (≈ 167 µM) | –
